# Measured values from patent US20100261719A1, “CHEMICAL COMPOUNDS” (priority 2007, published 2010).
# Target: Escherichia coli DNA gyrase A/B tetramer (Escherichia coli, UniProt P0AES4+P0AES6)
# Assay: DNA gyrase supercoiling activity fluorescence polarisation assay
# Type: biochemical
# Procedure: In a black, 384-well polystyrene assay plate, 30 microliters/well of 5 nM Escherichia coli DNA gyrase A/B tetramer and 130 micrograms/ml of topologically relaxed plasmid containing the triplex-forming sequence […] in an assay buffer consisting of 35 mM Tris-HCl (pH 7.5), 24 mM KCl, 4 mM MgCl2, 2 mM dithiothreitol, 1.8 mM spermidine, 5% (v/v) glycerol, 200 nM bovine serum albumin, 0.8% dimethylsulfoxide, and 0.3 mM ATP may be incubated at ambient temperature for (typically 30 minutes) in the absence or presence of 5-10 different concentrations of test compound. The supercoiling reactions may be quenched by the addition of 10 microliters/well of 40 nM oligodeoxynucleotide probe in 3× triplex-forming buffer consisting of 150 mM NaCl, and 150 mM sodium acetate at pH 3.5. The oligodeoxynucleotide probe may be 5′-BODIPY-FL-labeled TTCTTCTTC. After 60 minutes, the fluorescence anisotropy of the BODIPY-FL may be measured in a Tecan Ultra plate reader, using 485 nm excitation and 535 nm emission filters equipped with polarizers. The IC50 may be determined by nonliner regression using two control reactions. The first contains no test compound but 0.8% DMSO (100% activity) while the second control reaction contains 5 uM Ciprofloxacin and 0.8% DMSO (0% activity).
# When tested in an in-vitro assay based on the DNA gyrase supercoiling activity fluorescence polarisation assay described above, the E. coli DNA gyrase supercoiling IC50 assay inhibitory activity of the following Examples was measured at the indicated IC50.
# Chain of Escherichia coli DNA gyrase A/B tetramer (P0AES4 whole entry, one chain of several): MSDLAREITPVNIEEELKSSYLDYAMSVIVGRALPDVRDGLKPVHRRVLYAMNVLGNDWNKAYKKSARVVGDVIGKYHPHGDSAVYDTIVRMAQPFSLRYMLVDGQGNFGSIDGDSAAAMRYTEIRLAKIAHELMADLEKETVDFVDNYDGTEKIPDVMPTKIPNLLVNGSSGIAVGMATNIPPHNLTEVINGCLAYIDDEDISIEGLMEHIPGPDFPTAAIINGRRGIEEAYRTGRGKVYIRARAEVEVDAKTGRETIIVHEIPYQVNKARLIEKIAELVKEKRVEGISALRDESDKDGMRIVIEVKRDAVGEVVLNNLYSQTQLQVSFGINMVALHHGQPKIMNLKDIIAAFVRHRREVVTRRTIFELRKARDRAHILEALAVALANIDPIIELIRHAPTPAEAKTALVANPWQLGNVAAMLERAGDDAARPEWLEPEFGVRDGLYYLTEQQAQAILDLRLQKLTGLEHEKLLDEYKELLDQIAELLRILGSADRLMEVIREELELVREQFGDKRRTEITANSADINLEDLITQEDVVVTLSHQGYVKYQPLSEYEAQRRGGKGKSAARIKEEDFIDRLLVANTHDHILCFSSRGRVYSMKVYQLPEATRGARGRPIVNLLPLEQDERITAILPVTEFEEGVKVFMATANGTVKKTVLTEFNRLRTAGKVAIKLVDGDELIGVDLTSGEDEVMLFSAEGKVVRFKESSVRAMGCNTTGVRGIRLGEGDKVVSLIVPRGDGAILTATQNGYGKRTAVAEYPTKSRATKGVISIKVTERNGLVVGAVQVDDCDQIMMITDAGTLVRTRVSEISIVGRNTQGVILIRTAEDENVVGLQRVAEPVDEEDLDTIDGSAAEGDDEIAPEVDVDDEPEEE
row,Structure (SMILES),IC50 [nM]
1,"C[C@@H]1CN2c3c(cc(C#Cc4ccc(-c5ccn[nH]5)s4)c(F)c3F)CC3(C(=O)NC(=O)NC3=O)[C@H]2[C@H](C)O1 (relative stereo) [Example 17, (2R,4S,4aS)-rel-9,10-Difluoro-2,4-dimethyl-8-{[5-(1H-pyrazol-5-yl)thiophen-2-yl]ethynyl}-1,2,4,4a-tetrahydro-2′H,6H-spiro[1,4-oxazino[4,3-a]quinoline-5,5′-pyrimidine]-2′,4′,6′(1′H,3′H)-trione]",1840
2,"C[C@@H]1CN2c3c(cc(C#Cc4ccc(-c5nnn[nH]5)s4)c(F)c3F)CC3(C(=O)NC(=O)NC3=O)[C@H]2[C@H](C)O1 (relative stereo) [Example 14, (2R,4S,4aS)-rel-9,10-Difluoro-2,4-dimethyl-8-{[5-(1H-tetrazol-5-yl)thiophen-2-yl]ethynyl}-1,2,4,4a-tetrahydro-2′H,6H-spiro[1,4-oxazino[4,3-a]quinoline-5,5′-pyrimidine]-2′,4′,6′(1′H,3′H)-trione]",1120
3,"C[C@@H]1CN2c3ccc(NC(=O)N4CCNC4=O)cc3CC3(C(=O)NC(=O)NC3=O)[C@H]2[C@H](C)O1 (relative stereo) [Example 76, N-[(2R,4S,4aS)-rel-2,4-Dimethyl-2′,4′,6′-trioxo-1,1′,2,3′,4,4′,4a,6′-octahydro-2′H,6H-spiro[1,4-oxazino[4,3-a]quinoline-5,5′-pyrimidin]-8-yl]-2-oxoimidazolidine-1-carboxamide]",16500
4,"C/C(=N\NC(=O)Nc1ccccc1)c1cc2c(c(F)c1F)N1C[C@@H](C)O[C@@H](C)[C@@H]1C1(C2)C(=O)NC(=O)NC1=O (relative stereo) [Example 51, (2E)-2-{1-[(2R,4S,4aS)-rel-9,10-Difluoro-2,4-dimethyl-2′,4′,6′-trioxo-1,1′,2,3′,4,4′,4a,6′-octahydro-2′H,6H-spiro[1,4-oxazino[4,3-a]quinoline-5,5′-pyrimidin]-8-yl]ethylidene}-N-phenylhydrazinecarboxamide]",5500
5,"C[C@H]1CN2c3c(cc(C#Cc4c[nH]cn4)c(F)c3F)CC3(C(=O)NC(=O)NC3=O)[C@@H]2[C@@H](C)O1 (relative stereo) [Example 15, (2S,4R,4aR)-rel-9,10-Difluoro-8-(1H-imidazol-4-ylethynyl)-2,4-dimethyl-1,2,4,4a-tetrahydro-2′H,6H-spiro[1,4-oxazino[4,3-a]quinoline-5,5′-pyrimidine]-2′,4′,6′(1′H,3′H)-trione]",700
6,"C/C(=N\Nc1ccccc1)c1cc2c(c(F)c1F)N1C[C@@H](C)O[C@@H](C)[C@@H]1C1(C2)C(=O)NC(=O)NC1=O (relative stereo) [Example 58, (2R,4S,4aS)-rel-9,10-Difluoro-2,4-dimethyl-8-[(1E)-1-(2-phenylhydrazinylidene)ethyl]-1,2,4,4a-tetrahydro-2′H,6H-spiro[1,4-oxazino[4,3-a]quinoline-5,5′-pyrimidine]-2′,4′,6′(1′H,3′H)-trione]",980
7,"C[C@@H]1CN2c3c(cc(C(=O)NC4CCCN(C)C4)c(F)c3F)CC3(C(=O)NC(=O)NC3=O)[C@H]2[C@H](C)O1 (relative stereo) [Example 69, (2R,4S,4aS)-rel-9,10-Difluoro-2,4-dimethyl-N-(1-methylpiperidin-3-yl)-2′,4′,6′-trioxo-1,1′,2,3′,4,4′,4a,6′-octahydro-2′H,6H-spiro[1,4-oxazino[4,3-a]quinoline-5,5′-pyrimidine]-8-carboxamide]",8680
8,"C[C@@H]1CN2c3c(cc(C(=O)NC4CCOC4=O)c(F)c3F)CC3(C(=O)NC(=O)NC3=O)[C@H]2[C@H](C)O1 (relative stereo) [Example 61, (2R,4S,4aS)-rel-9,10-Difluoro-2,4-dimethyl-2′,4′,6′-trioxo-N-(2-oxotetrahydrofuran-3-yl)-1,1′,2,3′,4,4′,4a,6′-octahydro-2′H,6H-spiro[1,4-oxazino[4,3-a]quinoline-5,5′-pyrimidine]-8-carboxamide]",4840
9,"C[C@@H]1CN2c3cc(F)c(C#Cc4ncccn4)cc3CC3(C(=O)NC(=O)NC3=O)[C@H]2[C@H](C)O1 (relative stereo) [Example 33, (2R,4S,4aS)-rel-9-Fluoro-2,4-dimethyl-8-(pyrimidin-2-ylethynyl)-1,2,4,4a-tetrahydro-2′H,6H-spiro[1,4-oxazino[4,3-a]quinoline-5,5′-pyrimidine]-2′,4′,6′(1′H,3′H)-trione]",1180
10,"Cc1nnc(C#Cc2cc3c(c(F)c2F)N2C[C@H](C)O[C@H](C)[C@H]2C2(C3)C(=O)NC(=O)NC2=O)s1 (relative stereo) [Example 5, (2S,4R,4aR)-rel-9,10-Difluoro-2,4-dimethyl-8-[(5-methyl-1,3,4-thiadiazol-2-yl)ethynyl]-1,2,4,4a-tetrahydro-2′H,6H-spiro[1,4-oxazino[4,3-a]quinoline-5,5′-pyrimidine]-2′,4′,6′(1′H,3′H)-trione]",1880
11,"COC(=O)N/N=C(\C)c1cc2c(c(F)c1F)N1C[C@@H](C)O[C@@H](C)[C@@H]1C1(C2)C(=O)NC(=O)NC1=O (racemic) [Example 49, Methyl (2E)-2-{1-[(2R,4S,4aS)-rel-9,10-difluoro-2,4-dimethyl-2′,4′6′-trioxo-1,1′,2,3′,4,4′,4a,6′-octahydro-2′H,6H-spiro[1,4-oxazino[4,3-a]quinoline-5,5′-pyrimidin]-8-yl]ethylidene}hydrazinecarboxylate]",450
12,"C[C@@H]1CN2c3c(F)cc(C#Cc4nncs4)cc3CC3(C(=O)NC(=O)NC3=O)[C@H]2[C@H](C)O1 (relative stereo) [Example 36, (2R,4S,4aS)-rel-10-Fluoro-2,4-dimethyl-8-(1,3,4-thiadiazol-2-ylethynyl)-1,2,4,4a-tetrahydro-2′H,6H-spiro[1,4-oxazino[4,3-a]quinoline-5,5′-pyrimidine]-2′,4′,6′(1′H,3′H)-trione]",710
13,"Cc1nnc(C)n1/N=C/c1cc2c(c(F)c1F)N1C[C@@H](C)O[C@@H](C)[C@@H]1C1(C2)C(=O)NC(=O)NC1=O (relative stereo) [Example 47, (2R,4S,4aS)-rel-8-{(E)-[(3,5-Dimethyl-4H-1,2,4-triazol-4-yl)imino]methyl}-9,10-difluoro-2,4-dimethyl-1,2,4,4a-tetrahydro-2′H,6H-spiro[1,4-oxazino[4,3-a]quinoline-5,5′-pyrimidine]-2′,4′,6′(1′H,3′H)-trione]",3670
14,"C[C@@H]1CN2c3ccc(NC(=O)N(C)C)cc3CC3(C(=O)NC(=O)NC3=O)[C@H]2[C@H](C)O1 (relative stereo) [Example 77, 3-[(2R,4S,4aS)-rel-2,4-Dimethyl-2′,4′,6′-trioxo-1,1′,2,3′,4,4′,4a,6′-octahydro-2′H,6H-spiro[1,4-oxazino[4,3-a]quinoline-5,5′-pyrimidin]-8-yl]-1,1-dimethylurea]",21700
15,"C[C@@H]1CN2c3c(F)cc(C#Cc4cc5ccccc5s4)cc3CC3(C(=O)NC(=O)NC3=O)[C@H]2[C@H](C)O1 (racemic) [Example 41, (2R,4S,4aS)-rel-8-(1-Benzothiophen-2-ylethynyl)-10-fluoro-2,4-dimethyl-1,2,4,4a-tetrahydro-2′H,6H-spiro[1,4-oxazino[4,3-a]quinoline-5,5′-pyrimidine]-2′,4′,6′(1′H,3′H)-trione]",7160
16,"C/C(=N\NC(=O)CC#N)c1cc2c(c(F)c1F)N1C[C@@H](C)O[C@@H](C)[C@@H]1C1(C2)C(=O)NC(=O)NC1=O (relative stereo) [Example 53, 2-Cyano-N′-{(1E)-1-[(2R,4S,4aS)-rel-9,10-difluoro-2,4-dimethyl-2′,4′,6′-trioxo-1,1′,2,3′,4,4′,4a,6′-octahydro-2′H,6H-spiro[1,4-oxazino[4,3-a]quinoline-5,5′-pyrimidin]-8-yl]ethylidene}acetohydrazide]",1640
17,"C[C@@H]1CN2c3cc(F)c(C#Cc4cc5ccccc5s4)cc3CC3(C(=O)NC(=O)NC3=O)[C@H]2[C@H](C)O1 (racemic) [Example 29, (2R,4S,4aS)-rel-8-(1-Benzothiophen-2-ylethynyl)-9-fluoro-2,4-dimethyl-1,2,4,4a-tetrahydro-2′H,6H-spiro[1,4-oxazino[4,3-a]quinoline-5,5′-pyrimidine]-2′,4′,6′(1′H,3′H)-trione]",20000
18,"C[C@@H]1CN2c3cc(F)c(C#Cc4nccs4)cc3CC3(C(=O)NC(=O)NC3=O)[C@H]2[C@H](C)O1 (relative stereo) [Example 26, (2R,4S,4aS)-rel-9-Fluoro-2,4-dimethyl-8-(1,3-thiazol-2-ylethynyl)-1,2,4,4a-tetrahydro-2′H,6H-spiro[1,4-oxazino[4,3-a]quinoline-5,5′-pyrimidine]-2′,4′,6′(1′H,3′H)-trione]",1080
19,"C[C@@H]1CN2c3cc(F)c(C#Cc4nncs4)cc3CC3(C(=O)NC(=O)NC3=O)[C@H]2[C@H](C)O1 (relative stereo) [Example 24, (2R,4S,4aS)-rel-9-Fluoro-2,4-dimethyl-8-(1,3,4-thiadiazol-2-ylethynyl)-1,2,4,4a-tetrahydro-2′H,6H-spiro[1,4-oxazino[4,3-a]quinoline-5,5′-pyrimidine]-2′,4′,6′(1′H,3′H)-trione]",350
